# Reference: ChEMBL document CHEMBL4311976, “Design, synthesis and biological evaluation of novel 7H-pyrrolo[2,3-d]pyrimidine derivatives as potential FAK inhibitors and anticancer agents” (Eur J Med Chem, 2019)
# Experiments:
# Test in all cases: cells
# [1] = test system: MDA-MB-231; details: Homo sapiens, MDA-MB-231, 72 h
# Description: Antiproliferative activity against human MDA-MB-231 cells assessed as reduction in cell viability after 72 hrs by MTT assay
# [2] = test system: HK-2; details: Homo sapiens, HK-2, 72 h
# Description: Cytotoxicity against human HK2 cells assessed as reduction in cell viability after 72 hrs by MTT assay
# [3] = test system: A549; details: Homo sapiens, A549, 72 h
# Description: Antiproliferative activity against human A549 cells assessed as reduction in cell viability after 72 hrs by MTT assay
SMILES,IC50 [1],IC50 [2],IC50 [3]
CP(C)(=O)c1ccccc1Nc1nc(Nc2cnn(CC(F)F)c2)nc2[nH]ccc12,3.43 µM,4.4 µM,7.53 µM
CP(C)(=O)c1ccccc1Nc1nc(Nc2ccc(C(=O)N[C@H]3CCCNC3)cc2)nc2[nH]ccc12,12.4 µM,> 25 µM,2.48 µM
COc1cc(C(=O)NC2CCNCC2)c(F)cc1Nc1nc(Nc2ccccc2P(C)(C)=O)c2cc[nH]c2n1,11.3 µM,> 25 µM,2.24 µM
CP(C)(=O)c1ccccc1Nc1nc(Nc2ccc(C(=O)N3CCNCC3)cc2)nc2[nH]ccc12,8.8 µM,> 25 µM,9.88 µM
CNC(=O)c1ccccc1Nc1nc(Nc2ccc(N3CCOCC3)cc2OC)ncc1Cl,4.24 µM,8.2 µM,1.02 µM
CNC(=O)c1ccc(Nc2nc(Nc3ccccc3P(C)(C)=O)c3cc[nH]c3n2)cc1,4.17 µM,9.16 µM,3.45 µM
CCNS(=O)(=O)c1ccc(Nc2nc(Nc3ccccc3P(C)(C)=O)c3cc[nH]c3n2)cc1,1.31 µM,4.77 µM,1.02 µM
CP(C)(=O)c1ccccc1Nc1nc(Nc2ccc(C(=O)NC3CCNCC3)cc2)nc2[nH]ccc12,17.8 µM,> 25 µM,2.93 µM
CP(C)(=O)c1ccccc1Nc1nc(Nc2ccc(N3CCNCC3)cc2)nc2[nH]ccc12,4.35 µM,8.33 µM,0.53 µM

# Continued by falling IC50 [1], values first:
IC50 [1],IC50 [2],IC50 [3],SMILES
14.3 µM,8.89 µM,9.8 µM,CP(C)(=O)c1ccccc1Nc1nc(Nc2ccc(C(=O)N3CCOCC3)cc2)nc2[nH]ccc12
14.1 µM,> 25 µM,14.5 µM,CP(C)(=O)c1ccccc1Nc1nc(Nc2cnn(C3CCNCC3)c2)nc2[nH]ccc12
8.18 µM,> 25 µM,17.4 µM,COCCn1cc(Nc2nc(Nc3ccccc3P(C)(C)=O)c3cc[nH]c3n2)cn1
6.53 µM,9.75 µM,3.72 µM,CP(C)(=O)c1ccccc1Nc1nc(Nc2ccc(C(=O)NC3CCOCC3)cc2)nc2[nH]ccc12
5.53 µM,14.4 µM,7.01 µM,CP(C)(=O)c1ccccc1Nc1nc(Nc2cnn(C3CCOCC3)c2)nc2[nH]ccc12
4.17 µM,21.9 µM,1.61 µM,CP(C)(=O)c1ccccc1Nc1nc(Nc2ccc(C(=O)NC3CCNCC3)c(F)c2)nc2[nH]ccc12
